# Measured values from ChEMBL document CHEMBL5325437, “Shifting the selectivity of pyrido[2,3-d]pyrimidin-7(8H)-one inhibitors towards the salt-inducible kinase (SIK) subfamily” (Eur J Med Chem, 2023).
# Activity calls are given as the source filed them. No cut-off for these calls is given here.
# Columns and labels:
# HCT-116 [1] = assay: Cytotoxicity against human HCT-116 cells assessed as appearance of pyknosis nuclei at 10 uM incubated for 80 hrs by Hoechst-33342 staining high-content imaging analysis; type: toxicity, cell-based; conditions: hct-116, 80 h
# [2] = target: Serine/threonine-protein kinase 24 (Homo sapiens) (UniProt Q9Y6E0); assay: Binding affinity to recombinant MST3 (unknown origin) assessed as stabilization by measuring change in melting temperature at 10 uM by SYPRO orange dye based differential scanning fluorimetry assay
# SK-OV-3 [3] = assay: Induction of cell cycle arrest in human SK-OV-3 cells assessed as accumulation of cells at S phase at 5 uM incubated for 24 hrs by flow cytometry (reference value: 32%); type: functional
# Ephrin type-A receptor 4 [4] = target: T1, Ephrin type-A receptor 4 (Homo sapiens, UniProt P54764); assay: Inhibition of full length NanoLuc fused EPHA4 (unknown origin) transfected in HEK293T cells using NanoBRET NanoGlo substrate incubated for 2 hrs in presence of tracer by NanoBRET assay; type: cell-based
# Ephrin type-A receptor 4 [5] = target: T1, Ephrin type-A receptor 4; assay: Binding affinity to recombinant EPHA4 (unknown origin) assessed as stabilization by measuring change in melting temperature at 10 uM by SYPRO orange dye based differential scanning fluorimetry assay
# HCT-116 [6] = assay: Cytotoxicity against human HCT-116 cells assessed as appearance of pyknosis nuclei at 1 uM incubated for 80 hrs by Hoechst-33342 staining high-content imaging analysis; type: toxicity, cell-based; conditions: hct-116, 80 h
# SK-OV-3 [7] = assay: Induction of cell cycle arrest in human SK-OV-3 cells assessed as accumulation of cells at interphase at 5 uM incubated for 24 hrs by flow cytometry; type: functional
# [8] = target: T2, Mitogen-activated protein kinase 8 (Homo sapiens, UniProt P45983); assay: Binding affinity to recombinant JNK1 (unknown origin) assessed as stabilization by measuring change in melting temperature at 10 uM by SYPRO orange dye based differential scanning fluorimetry assay
# [9] = target: Serine/threonine-protein kinase SIK2 (Homo sapiens) (UniProt Q9H0K1); assay: Inhibition of SIK2 in human SK-OV-3 cells assessed as upregulation of cyclin A expression level at 5 uM incubated for 48 hrs by Western blotting analysis; type: cell-based
# [10] = target: Serine/threonine-protein kinase SIK2 (Homo sapiens) (UniProt Q9H0K1); assay: Inhibition of SIK2 in human SK-OV-3 cells assessed as downregulation of AKT phosphorylation at Ser473 at 5 uM incubated for 48 hrs by Western blotting analysis; type: cell-based
# [11] = target: Serine/threonine-protein kinase 26 (Homo sapiens) (UniProt Q9P289); assay: Binding affinity to recombinant MST4 (unknown origin) assessed as stabilization by measuring change in melting temperature at 10 uM by SYPRO orange dye based differential scanning fluorimetry assay
# [12] = target: T3, Serine/threonine-protein kinase 4 (Homo sapiens) (UniProt Q13043); assay: Binding affinity to recombinant MST1 (unknown origin) assessed as stabilization by measuring change in melting temperature at 10 uM by SYPRO orange dye based differential scanning fluorimetry assay
# T3 sequence (whole entry): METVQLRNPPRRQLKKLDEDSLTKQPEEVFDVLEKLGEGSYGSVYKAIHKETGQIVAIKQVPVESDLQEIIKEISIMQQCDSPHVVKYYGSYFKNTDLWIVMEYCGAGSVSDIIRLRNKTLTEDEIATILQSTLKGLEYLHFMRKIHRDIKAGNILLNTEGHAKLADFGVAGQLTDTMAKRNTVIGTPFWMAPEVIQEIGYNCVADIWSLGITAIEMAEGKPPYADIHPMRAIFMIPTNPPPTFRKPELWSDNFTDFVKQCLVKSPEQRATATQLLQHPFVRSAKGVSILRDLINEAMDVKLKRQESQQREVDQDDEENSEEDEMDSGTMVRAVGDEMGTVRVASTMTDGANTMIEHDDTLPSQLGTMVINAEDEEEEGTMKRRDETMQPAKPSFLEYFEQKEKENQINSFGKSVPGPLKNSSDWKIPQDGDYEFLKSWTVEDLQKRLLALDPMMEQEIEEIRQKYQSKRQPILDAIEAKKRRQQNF
# [13] = target: Serine/threonine-protein kinase SIK2 (Homo sapiens) (UniProt Q9H0K1); assay: Inhibition of SIK2 in human SK-OV-3 cells assessed as upregulation of PLK expression level at 5 uM incubated for 48 hrs by Western blotting analysis; type: cell-based
# [14] = Binding affinity to recombinant RSK1b (unknown origin) assessed as stabilization by measuring change in melting temperature at 10 uM by SYPRO orange dye based differential scanning fluorimetry assay; conditions: Homo sapiens
# Ephrin type-A receptor 2 = Ephrin type-A receptor 2 (Homo sapiens, UniProt P29317); assay: Inhibition of full length NanoLuc fused EPHA2 (unknown origin) transfected in HEK293T cells using NanoBRET NanoGlo substrate incubated for 2 hrs in presence of tracer by NanoBRET assay; type: cell-based
# Ephrin type-A receptor 3 = Ephrin type-A receptor 3 (Homo sapiens, UniProt P29320); assay: Inhibition of full length NanoLuc fused EPHA3 (unknown origin) transfected in HEK293T cells using NanoBRET NanoGlo substrate incubated for 2 hrs in presence of tracer by NanoBRET assay; type: cell-based
# [15] = target: Ephrin type-B receptor 1 (Homo sapiens) (UniProt P54762); assay: Binding affinity to recombinant EPHB1 (unknown origin) assessed as stabilization by measuring change in melting temperature at 10 uM by SYPRO orange dye based differential scanning fluorimetry assay
# [16] = target: Serine/threonine-protein kinase SIK2 (Homo sapiens) (UniProt Q9H0K1); assay: Inhibition of SIK2 in human SK-OV-3 cells assessed as decrease in centrosome dissociation in G2 phase at 5 uM incubated for 48 hrs by immunofluorescence assay; type: cell-based
# [17] = target: Cyclin-G-associated kinase (Homo sapiens, UniProt O14976); assay: Inhibition of full length NanoLuc fused GAK (unknown origin) transfected in HEK293T cells using NanoBRET NanoGlo substrate incubated for 2 hrs in presence of tracer by NanoBRET assay; type: cell-based
# HCT-116 [18] = assay: Cytotoxicity against human HCT-116 cells assessed as decrease in cell viability at 10 uM incubated for 24 hrs by Hoechst-33342 staining high-content imaging analysis; type: toxicity, cell-based; conditions: hct-116, 24 h
# [19] = target: Serine/threonine-protein kinase PAK 1 (Homo sapiens) (UniProt Q13153); assay: Binding affinity to recombinant PAK1 (unknown origin) assessed as stabilization by measuring change in melting temperature at 10 uM by SYPRO orange dye based differential scanning fluorimetry assay
# HCT-116 [20] = assay: Cytotoxicity against human HCT-116 cells assessed as reduction in cell count at 1 uM incubated for >60 hrs by Hoechst-33342 staining high-content imaging analysis; type: toxicity, cell-based; conditions: hct-116, 60 h
# [21] = Drug metabolism in Sprague-Dawley rat liver microsomes assessed as compound metabolized incubated for 60 mins in presence of NADPH by HPLC analysis; type: ADME, Microsome; conditions: 1 h
# [22] = target: T2, Mitogen-activated protein kinase 8; assay: Inhibition of full length NanoLuc fused JNK1 (unknown origin) transfected in HEK293T cells using NanoBRET NanoGlo substrate incubated for 2 hrs in presence of tracer by NanoBRET assay; type: cell-based
# [23] = target: Tyrosine-protein kinase ABL1 (Homo sapiens, UniProt P00519); assay: Binding affinity to recombinant ABL1 (unknown origin) assessed as stabilization by measuring change in melting temperature at 10 uM by SYPRO orange dye based differential scanning fluorimetry assay
# Serine/threonine-protein kinase SIK2 (Homo sapiens), sequence (Q9H0K1 whole entry, looked up, the tested form may be a part): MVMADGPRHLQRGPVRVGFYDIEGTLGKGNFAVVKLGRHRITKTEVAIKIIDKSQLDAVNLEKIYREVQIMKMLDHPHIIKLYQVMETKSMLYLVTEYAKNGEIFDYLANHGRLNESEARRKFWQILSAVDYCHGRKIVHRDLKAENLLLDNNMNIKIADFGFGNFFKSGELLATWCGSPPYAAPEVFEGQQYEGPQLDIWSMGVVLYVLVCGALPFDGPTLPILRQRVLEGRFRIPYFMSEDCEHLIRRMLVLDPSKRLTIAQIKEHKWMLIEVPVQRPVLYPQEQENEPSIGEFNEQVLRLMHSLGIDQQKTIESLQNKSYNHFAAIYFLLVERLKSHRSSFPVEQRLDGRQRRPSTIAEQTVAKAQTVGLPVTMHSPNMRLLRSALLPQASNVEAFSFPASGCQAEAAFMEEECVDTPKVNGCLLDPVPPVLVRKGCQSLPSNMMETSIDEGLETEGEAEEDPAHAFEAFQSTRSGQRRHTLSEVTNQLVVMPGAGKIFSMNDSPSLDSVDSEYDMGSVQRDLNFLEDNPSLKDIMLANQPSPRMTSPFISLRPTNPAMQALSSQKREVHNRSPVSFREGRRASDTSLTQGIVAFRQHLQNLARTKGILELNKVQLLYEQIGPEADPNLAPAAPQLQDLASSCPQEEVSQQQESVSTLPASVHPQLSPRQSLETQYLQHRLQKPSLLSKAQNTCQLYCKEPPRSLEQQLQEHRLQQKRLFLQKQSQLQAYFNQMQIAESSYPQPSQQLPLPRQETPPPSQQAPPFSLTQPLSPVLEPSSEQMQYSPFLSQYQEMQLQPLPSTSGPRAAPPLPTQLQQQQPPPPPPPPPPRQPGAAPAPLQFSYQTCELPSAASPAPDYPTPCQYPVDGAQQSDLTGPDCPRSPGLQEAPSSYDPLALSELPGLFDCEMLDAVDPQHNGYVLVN
# T2 sequence (P45983 whole entry): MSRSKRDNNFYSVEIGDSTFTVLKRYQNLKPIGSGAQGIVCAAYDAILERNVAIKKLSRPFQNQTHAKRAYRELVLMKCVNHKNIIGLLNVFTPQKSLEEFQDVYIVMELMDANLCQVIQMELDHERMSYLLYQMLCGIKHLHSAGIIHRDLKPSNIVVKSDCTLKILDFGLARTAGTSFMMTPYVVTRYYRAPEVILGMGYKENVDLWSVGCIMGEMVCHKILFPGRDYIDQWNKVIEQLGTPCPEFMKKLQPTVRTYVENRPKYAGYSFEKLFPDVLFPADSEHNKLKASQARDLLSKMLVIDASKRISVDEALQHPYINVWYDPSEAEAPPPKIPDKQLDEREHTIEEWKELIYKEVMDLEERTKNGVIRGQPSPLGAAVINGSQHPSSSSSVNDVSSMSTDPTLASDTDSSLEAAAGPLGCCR
# T1 sequence (P54764 whole entry, the tested form may be a part): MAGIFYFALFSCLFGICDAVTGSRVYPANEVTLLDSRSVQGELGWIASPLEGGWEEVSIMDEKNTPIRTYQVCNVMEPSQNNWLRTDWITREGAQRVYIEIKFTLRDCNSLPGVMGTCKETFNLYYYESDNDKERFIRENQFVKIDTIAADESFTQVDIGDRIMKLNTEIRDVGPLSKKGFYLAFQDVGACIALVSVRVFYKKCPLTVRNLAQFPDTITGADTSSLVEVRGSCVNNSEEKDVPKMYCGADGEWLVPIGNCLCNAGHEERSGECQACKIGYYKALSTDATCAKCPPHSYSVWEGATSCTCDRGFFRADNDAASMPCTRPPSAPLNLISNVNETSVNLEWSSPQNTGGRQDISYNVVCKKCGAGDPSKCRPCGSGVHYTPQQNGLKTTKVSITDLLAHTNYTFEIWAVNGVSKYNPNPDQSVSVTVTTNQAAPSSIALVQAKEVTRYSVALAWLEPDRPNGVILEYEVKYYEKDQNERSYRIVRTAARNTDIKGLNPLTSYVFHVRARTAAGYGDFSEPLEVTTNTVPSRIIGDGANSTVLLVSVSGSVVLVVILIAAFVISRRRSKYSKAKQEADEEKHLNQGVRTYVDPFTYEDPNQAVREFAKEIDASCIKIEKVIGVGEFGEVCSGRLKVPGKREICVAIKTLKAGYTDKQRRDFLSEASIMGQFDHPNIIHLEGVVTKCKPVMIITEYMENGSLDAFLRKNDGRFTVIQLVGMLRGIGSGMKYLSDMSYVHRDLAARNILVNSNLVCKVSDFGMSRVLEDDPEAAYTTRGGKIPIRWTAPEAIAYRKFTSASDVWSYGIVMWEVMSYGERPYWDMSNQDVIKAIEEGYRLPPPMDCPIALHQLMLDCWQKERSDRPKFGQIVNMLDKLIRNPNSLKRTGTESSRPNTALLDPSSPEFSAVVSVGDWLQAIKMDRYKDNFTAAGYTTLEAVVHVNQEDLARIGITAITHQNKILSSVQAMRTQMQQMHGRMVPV
# Serine/threonine-protein kinase 26 (Homo sapiens), sequence (Q9P289 2-416 limits assumed): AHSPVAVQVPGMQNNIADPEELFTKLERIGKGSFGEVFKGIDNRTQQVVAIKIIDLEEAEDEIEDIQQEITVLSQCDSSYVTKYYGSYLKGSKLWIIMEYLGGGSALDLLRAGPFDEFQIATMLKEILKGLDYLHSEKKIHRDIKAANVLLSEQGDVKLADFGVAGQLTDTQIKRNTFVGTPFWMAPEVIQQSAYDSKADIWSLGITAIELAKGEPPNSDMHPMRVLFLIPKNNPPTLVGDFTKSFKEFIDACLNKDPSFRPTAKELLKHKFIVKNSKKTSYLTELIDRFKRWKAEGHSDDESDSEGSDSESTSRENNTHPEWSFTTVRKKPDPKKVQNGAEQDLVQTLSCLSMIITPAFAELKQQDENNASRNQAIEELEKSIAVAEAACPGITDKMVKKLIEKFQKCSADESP
# Ephrin type-A receptor 3, sequence (P29320 whole entry, the tested form may be a part): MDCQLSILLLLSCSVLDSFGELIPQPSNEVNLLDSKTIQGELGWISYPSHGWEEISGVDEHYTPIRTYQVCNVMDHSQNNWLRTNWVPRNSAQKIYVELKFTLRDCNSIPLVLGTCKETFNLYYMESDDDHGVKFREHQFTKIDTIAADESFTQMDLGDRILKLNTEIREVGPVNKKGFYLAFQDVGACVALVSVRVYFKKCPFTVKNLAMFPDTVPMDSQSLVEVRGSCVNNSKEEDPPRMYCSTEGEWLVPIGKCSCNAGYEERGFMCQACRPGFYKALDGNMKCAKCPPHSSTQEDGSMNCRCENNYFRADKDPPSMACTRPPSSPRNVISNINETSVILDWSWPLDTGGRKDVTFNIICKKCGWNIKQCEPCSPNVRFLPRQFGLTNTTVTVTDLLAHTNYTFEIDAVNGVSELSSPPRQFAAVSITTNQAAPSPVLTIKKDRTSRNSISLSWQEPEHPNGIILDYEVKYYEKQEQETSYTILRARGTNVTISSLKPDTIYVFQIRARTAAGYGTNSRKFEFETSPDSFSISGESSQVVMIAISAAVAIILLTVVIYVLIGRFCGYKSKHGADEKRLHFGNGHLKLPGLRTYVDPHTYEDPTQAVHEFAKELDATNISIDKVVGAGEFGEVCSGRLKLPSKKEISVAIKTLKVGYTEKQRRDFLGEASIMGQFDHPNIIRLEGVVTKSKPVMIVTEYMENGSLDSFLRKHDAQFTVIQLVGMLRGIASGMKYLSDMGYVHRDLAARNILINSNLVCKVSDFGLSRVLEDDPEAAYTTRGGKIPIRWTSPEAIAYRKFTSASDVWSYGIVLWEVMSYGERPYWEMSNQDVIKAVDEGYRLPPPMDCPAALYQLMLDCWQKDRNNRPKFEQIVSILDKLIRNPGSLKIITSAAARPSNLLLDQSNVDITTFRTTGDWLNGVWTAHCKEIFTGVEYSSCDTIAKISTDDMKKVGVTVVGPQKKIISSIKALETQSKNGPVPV
# Cyclin-G-associated kinase, sequence (O14976 whole entry, the tested form may be a part): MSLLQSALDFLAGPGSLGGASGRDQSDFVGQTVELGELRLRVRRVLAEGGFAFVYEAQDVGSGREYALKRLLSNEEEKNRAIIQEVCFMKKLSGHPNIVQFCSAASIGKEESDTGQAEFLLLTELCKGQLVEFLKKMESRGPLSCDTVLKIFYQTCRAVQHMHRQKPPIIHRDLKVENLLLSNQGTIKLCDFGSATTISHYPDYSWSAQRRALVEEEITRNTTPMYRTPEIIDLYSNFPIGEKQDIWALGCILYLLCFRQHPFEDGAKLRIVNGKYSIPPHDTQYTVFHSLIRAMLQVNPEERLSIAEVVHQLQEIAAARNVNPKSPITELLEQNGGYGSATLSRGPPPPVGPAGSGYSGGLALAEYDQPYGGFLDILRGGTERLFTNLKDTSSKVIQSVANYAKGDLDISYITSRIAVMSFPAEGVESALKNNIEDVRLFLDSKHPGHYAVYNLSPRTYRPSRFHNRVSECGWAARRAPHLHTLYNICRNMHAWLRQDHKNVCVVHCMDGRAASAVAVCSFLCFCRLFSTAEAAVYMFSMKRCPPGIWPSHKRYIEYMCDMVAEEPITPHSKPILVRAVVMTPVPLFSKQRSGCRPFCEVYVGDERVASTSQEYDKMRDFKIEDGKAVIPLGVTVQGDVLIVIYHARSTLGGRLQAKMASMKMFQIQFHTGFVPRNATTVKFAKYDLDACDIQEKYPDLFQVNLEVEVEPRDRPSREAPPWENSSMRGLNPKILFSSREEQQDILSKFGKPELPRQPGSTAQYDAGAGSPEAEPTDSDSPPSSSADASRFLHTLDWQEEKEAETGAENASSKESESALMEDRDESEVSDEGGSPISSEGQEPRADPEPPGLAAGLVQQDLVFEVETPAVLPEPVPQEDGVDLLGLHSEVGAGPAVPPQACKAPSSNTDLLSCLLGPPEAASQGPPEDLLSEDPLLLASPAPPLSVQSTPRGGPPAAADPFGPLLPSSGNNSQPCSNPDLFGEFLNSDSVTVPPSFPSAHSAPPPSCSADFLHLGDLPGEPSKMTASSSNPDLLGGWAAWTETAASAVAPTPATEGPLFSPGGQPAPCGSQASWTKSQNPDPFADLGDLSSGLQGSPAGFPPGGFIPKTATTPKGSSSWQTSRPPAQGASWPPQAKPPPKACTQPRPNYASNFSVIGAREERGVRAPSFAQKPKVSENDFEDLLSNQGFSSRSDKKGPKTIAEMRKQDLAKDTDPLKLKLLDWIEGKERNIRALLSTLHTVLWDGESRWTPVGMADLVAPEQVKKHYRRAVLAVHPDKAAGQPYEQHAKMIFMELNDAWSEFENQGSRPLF
smiles,measurement,setting,value
CNc1ncc2cc(-c3cc(F)ccc3F)c(=O)n(CCCCN)c2n1,Activity,HCT-116 [1],30%
same,ΔTm,[2],1.5 °C
same,Activity,SK-OV-3 [3],19%
same,IC50,Ephrin type-A receptor 4 [4],1600 nM
same,ΔTm,Ephrin type-A receptor 4 [5],5.5 °C
same,Activity,HCT-116 [6],Toxic
same,Activity,SK-OV-3 [7],69%
same,ΔTm,[8],7.3 °C
same,inhibition,[9],Active
same,inhibition,[10],Active
same,ΔTm,[11],0.9 °C
same,ΔTm,[12],0.9 °C
same,inhibition,[13],Active
same,ΔTm,[14],15.1 °C
same,IC50,Ephrin type-A receptor 2,2100 nM
same,IC50,Ephrin type-A receptor 3,2100 nM
same,ΔTm,[15],7 °C
same,inhibition,[16],Active
same,IC50,[17],33800 nM
same,Activity,HCT-116 [18],Toxic
same,ΔTm,[19],0 °C
same,Activity,HCT-116 [20],Toxic
same,Drug metabolism,[21],Metabolite_Detected
same,IC50,[22],23200 nM
same,ΔTm,[23],7.4 °C
